Results: patent US10124004B2, “Pyrido[3,4-d]pyrimidine derivative and pharmaceutically acceptable salt thereof” (Teijin Pharma Limited, priority 2015, dated 2018)

What was measured:
CDK4/cyclin D3 = molecular target: T1, CDK4/cyclin D3 (Homo sapiens, UniProt P11802); assay: Human CDK4/cyclin D3 inhibitory activity (QS S Assist CDK4/Cyclin D3_FP Kit, IMAP fluorescence polarization); format: biochemical; conditions: 50% inhibitory concentration against CDK4/cyclin D3, given as class symbol
T1 construct: purchased Carna Biosciences, Inc. QS S Assist CDK4/Cyclin D3_FP Kit
How it was run: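 IMAP fluorescence-polarization kinase assay with kit ATP/substrate/metal mix and 12.5 to 25 ng/well enzyme in 20 mM HEPES pH 7.4, 0.01% Tween20, 2 mM DTT. Reaction ran 45 min at room temperature, then binding reagent was added for 30 min in the dark. IC50 was taken from dose-response fits of percent inhibition.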

CDK2/cyclin A2 = molecular target: T2, CDK2/cyclin A2 (Homo sapiens, UniProt P24941); assay: Human CDK2/cyclin A2 inhibitory activity (QS S Assist CDK2/Cyclin A2_FP Kit, IMAP fluorescence polarization); format: biochemical; conditions: 50% inhibitory concentration against CDK2/cyclin A2, given as class symbol
T2 construct: purchased Carna Biosciences, Inc. QS S Assist CDK2/Cyclin A2_FP Kit
How it was run: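 Kinase activity read as fluorescence polarization (485/535 nm) after phosphorylated fluorescent substrate binds IMAP reagent (30 min, RT, dark). Enzyme (2.5 ng/well) reacted 60 min at RT with ATP/substrate/metal in HEPES pH 7.4 buffer with Tween 20 and DTT; no-enzyme wells define 0% activity; IC50 by curve fit.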

T1 sequence (P11802 whole entry): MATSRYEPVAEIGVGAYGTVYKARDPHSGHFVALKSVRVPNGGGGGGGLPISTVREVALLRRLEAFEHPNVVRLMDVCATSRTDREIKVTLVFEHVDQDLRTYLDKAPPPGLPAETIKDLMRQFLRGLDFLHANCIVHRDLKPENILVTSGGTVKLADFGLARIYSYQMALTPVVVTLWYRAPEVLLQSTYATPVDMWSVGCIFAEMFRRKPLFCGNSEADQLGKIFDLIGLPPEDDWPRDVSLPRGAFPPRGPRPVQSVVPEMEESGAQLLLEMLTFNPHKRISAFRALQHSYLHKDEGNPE
T1 sequence (P30281 whole entry partner): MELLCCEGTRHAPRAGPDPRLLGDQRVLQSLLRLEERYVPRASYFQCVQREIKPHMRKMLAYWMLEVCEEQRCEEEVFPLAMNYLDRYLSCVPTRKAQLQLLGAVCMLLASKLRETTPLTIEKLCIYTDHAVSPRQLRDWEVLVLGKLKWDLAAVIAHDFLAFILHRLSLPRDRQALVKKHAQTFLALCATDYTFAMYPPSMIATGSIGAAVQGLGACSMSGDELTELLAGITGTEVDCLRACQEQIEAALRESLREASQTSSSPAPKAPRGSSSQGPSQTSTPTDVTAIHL

SMILES	IC50 (CDK4/cyclin D3)	IC50 (CDK2/cyclin A2)
CC(C)Nc1nc([C@@H](C)O)cc2cnc(Nc3ccc(N4CCN(C5COC5)CC4)nn3)nc12 [Compound 682, (R)-1-(8-(isopropylamino)-2-((6-(4-(oxetan-3-yl)piperazin-1-yl)pyridazin-3-yl)amino)pyrido[3,4-d]pyrimidin-6-yl)ethanol]	< 10 nM	≥ 100 nM
CC(C)Nc1nc([C@@H](C)O)cc2cnc(Nc3ccc(CN4CCN(C5COC5)CC4)cn3)nc12 [Compound 683]	< 10 nM	≥ 100 nM
CC(C)Nc1nc([C@@H](C)O)cc2cnc(Nc3ccc(C4CCCNC(C)C4=O)cn3)nc12 (stereo partly drawn) [Compound 686]	< 10 nM	≥ 100 nM
C[C@@H](O)c1cc2cnc(Nc3ccc(N4CCNCC4=O)cn3)nc2c(NCC2CCCOC2)n1 (stereo partly drawn) [Compound 691]	< 10 nM	≥ 100 nM
C[C@@H](O)c1cc2cnc(Nc3ccc(N4CCNCC4=O)cn3)nc2c(NC2CCOC(C)(C)C2)n1 (stereo partly drawn) [Compound 692]	< 10 nM	≥ 100 nM
CC(C)Nc1nc([C@@H](C)O)cc2cnc(Nc3ccc4c(n3)CCNC4)nc12 [Compound 693]	< 10 nM	≥ 100 nM
CC(C)Nc1nc([C@@H](C)O)cc2cnc(Nc3cc4c(cn3)CNCC4)nc12 [Compound 694]	10 to 100 nM	≥ 100 nM
CC(C)Nc1nc([C@@H](C)O)cc2cnc(Nc3ccc4c(n3)CNC4)nc12 [Compound 695]	< 10 nM	≥ 100 nM
CC(C)Nc1nc([C@@H](C)O)cc2cnc(Nc3ccc(CN4CCN(C(C)(C)CO)CC4)cn3)nc12 [Compound 700]	< 10 nM	≥ 100 nM
CC(C)Nc1nc([C@@H](C)O)cc2cnc(Nc3ccc(N4CCN(C(C)(C)CO)CC4)nn3)nc12 [Compound 701]	< 10 nM	≥ 100 nM
CC(C)Nc1nc([C@@H](C)O)cc2cnc(Nc3ccc(N4CCC(OCC(=O)O)CC4)nn3)nc12 [Compound 702]	10 to 100 nM	≥ 100 nM
CC(C)Nc1nc([C@@H](C)O)c(Cl)c2cnc(Nc3ccc(N4CCC(OCC(=O)O)CC4)nn3)nc12 [Compound 703]	10 to 100 nM	≥ 100 nM
CC(C)Nc1nc([C@@H](C)O)cc2cnc(Nc3ccc(C4CNCCO4)nn3)nc12 (stereo partly drawn) [Compound 706]	< 10 nM	≥ 100 nM
CC(C)Nc1nc(C(C)O)cc2cnc(Nc3ccc(OC4CCNCC4F)cn3)nc12 (stereo not drawn) [Compound 708]	< 10 nM	≥ 100 nM
CO[C@H](C)c1cc2cnc(Nc3ncc(N4CCNCC4=O)cc3F)nc2c(NC(C)C)n1 [Compound 715]	10 to 100 nM	≥ 100 nM
CC(C)Nc1nc([C@@H](C)O)cc2cnc(Nc3cnc(N4CCNCC4=O)cn3)nc12 [Compound 716]	10 to 100 nM	≥ 100 nM
COC(=O)CNCCNc1ccc(Nc2ncc3cc([C@@H](C)O)nc(NC(C)C)c3n2)nc1 [Compound 717]	10 to 100 nM	≥ 100 nM

Now from value to molecule:

IC50 (CDK4/cyclin D3)	IC50 (CDK2/cyclin A2)	SMILES
< 10 nM	≥ 100 nM	CO[C@H](C)c1cc2cnc(Nc3ccc(N4CC5(CCN5)C4)nn3)nc2c(NC(C)C)n1 [Compound 696]
< 10 nM	≥ 100 nM	CC(C)Nc1nc([C@H](C)F)cc2cnc(Nc3ccc(N4CCNCC4)nn3)nc12 [Compound 698]
< 10 nM	≥ 100 nM	CO[C@H](C)c1cc2cnc(Nc3ccc(N4CCNCC4)nn3)nc2c(NC(C)(C)C)n1 [Compound 709]
< 10 nM	≥ 100 nM	CO[C@H](C)c1cc2cnc(Nc3ccc(N4CCNCC4)nn3)nc2c(NCC(C)(C)C)n1 [Compound 710]
< 10 nM	≥ 100 nM	COC1CCC(Nc2nc([C@@H](C)OC)cc3cnc(Nc4ccc(N5CCNCC5)nn4)nc23)CC1 (stereo partly drawn) [Compound 711]
< 10 nM	≥ 100 nM	CO[C@H](C)c1cc2cnc(Nc3ccc(N4CCNCC4)nn3)nc2c(NC2CCCC2)n1 [Compound 712]
10 to 100 nM	≥ 100 nM	CC(C)Nc1nc([C@@H](C)F)cc2cnc(Nc3ccc(N4CCNCC4)nn3)nc12 [Compound 718]
